{"source": "patent US12161612B2", "about": "“Methods and compositions for reducing symptoms of Parkinson's disease” (NeuroDerm, Ltd., priority 2023, dated 2024)", "key": {"[1]": {"test": "ND0612-005a/ND0612-005b plasma carbidopa levels after subcutaneous carbidopa doses", "type": "in vivo, human", "conditions": "60 mg/ml levodopa with 7.5, 6 or 4 mg/ml carbidopa over 24 hours, 17.9, 26.9, 33.6 mg/24 h carbidopa", "procedure": "In a separate clinical trial (ND0612-005a and ND0612-005b, open label design studies), the plasma carbidopa levels were tested in view of the subcutaneous administration of several carbidopa doses. Three formulations, comprising 60 mg/ml levodopa and (a) 7.5 mg/ml; (b) 6 mg/ml; or 4 mg/ml of carbidopa, were administered to three groups of subjects over the course of 24 hours, providing a total of 17.9 mg/24 h carbidopa to each subject in the first group, 26.9 mg/24 h carbidopa to each subject in the second group and 33.6 mg/24 h carbidopa to each subject in the third group."}, "[2]": {"test": "ND0612-001 dose proportionality, 24 hour continuous subcutaneous infusion", "type": "in vivo, human", "conditions": "healthy male subjects; LD (6% w/w)/CD (1.4% w/w) composition, 24 hour subcutaneous infusion at 80-240 μl/h", "procedure": "Subjects were administered with a composition comprising LD (6% w/w)/CD (1.4% w/w) by way of a 24 hour continuous infusion at varying infusion rates: • Group 1:80 μl/h • Group 2:120 μl/h • Group 3:160 μl/h • Group 4:200 μl/h • Group 5:240 μl/h\nSeveral PK parameters were derived for both LD and CD in the dose proportionality assessment, including AUC (hr*ng/ml), Cmax (ng/ml), C15 (ng/ml), and C24 (ng/mL)."}}, "data": [{"molecule": "C[C@@](Cc1ccc(O)c(O)c1)(NN)C(=O)O", "note": "[CD, carbidopa]", "values": [{"measurement": "carbidopa Cmax dose proportionality", "setting": "[1]", "result": "showed clear dose proportionality"}, {"measurement": "dose proportionality of PK parameters (AUC, Cmax, C15, C24)", "setting": "[2]", "result": "demonstrated dose proportionality"}]}, {"molecule": "N[C@@H](Cc1ccc(O)c(O)c1)C(=O)O", "note": "[LD, L-3,4-dihydroxyphenylalanine]", "values": [{"measurement": "dose proportionality of PK parameters (AUC, Cmax, C15, C24)", "setting": "[2]", "result": "demonstrated dose proportionality"}]}]}
